26 molecules from US20140135319A1, “6-SUBSTITUTED IMIDAZOPYRAZINES FOR USE AS MPS-1 AND TKK INHIBITORS IN THE TREATMENT OF HYPERPROLIFERATIVE DISORDERS” (BAYER INTELLECTUAL PROPERTY GMBH, priority 2010, published 2014) can be followed below.

One may read the IC50 as the midpoint of a concentration-inhibition curve.

For the experiment, the target named is T1, human kinase Mps-1 (Homo sapiens, UniProt P33981).
T1 construct: N-terminally GST-tagged human full length recombinant Mps-1 kinase; GST (N); purchased Invitrogen, Karslruhe, Germany PV4071
T1 sequence (P33981 1-857): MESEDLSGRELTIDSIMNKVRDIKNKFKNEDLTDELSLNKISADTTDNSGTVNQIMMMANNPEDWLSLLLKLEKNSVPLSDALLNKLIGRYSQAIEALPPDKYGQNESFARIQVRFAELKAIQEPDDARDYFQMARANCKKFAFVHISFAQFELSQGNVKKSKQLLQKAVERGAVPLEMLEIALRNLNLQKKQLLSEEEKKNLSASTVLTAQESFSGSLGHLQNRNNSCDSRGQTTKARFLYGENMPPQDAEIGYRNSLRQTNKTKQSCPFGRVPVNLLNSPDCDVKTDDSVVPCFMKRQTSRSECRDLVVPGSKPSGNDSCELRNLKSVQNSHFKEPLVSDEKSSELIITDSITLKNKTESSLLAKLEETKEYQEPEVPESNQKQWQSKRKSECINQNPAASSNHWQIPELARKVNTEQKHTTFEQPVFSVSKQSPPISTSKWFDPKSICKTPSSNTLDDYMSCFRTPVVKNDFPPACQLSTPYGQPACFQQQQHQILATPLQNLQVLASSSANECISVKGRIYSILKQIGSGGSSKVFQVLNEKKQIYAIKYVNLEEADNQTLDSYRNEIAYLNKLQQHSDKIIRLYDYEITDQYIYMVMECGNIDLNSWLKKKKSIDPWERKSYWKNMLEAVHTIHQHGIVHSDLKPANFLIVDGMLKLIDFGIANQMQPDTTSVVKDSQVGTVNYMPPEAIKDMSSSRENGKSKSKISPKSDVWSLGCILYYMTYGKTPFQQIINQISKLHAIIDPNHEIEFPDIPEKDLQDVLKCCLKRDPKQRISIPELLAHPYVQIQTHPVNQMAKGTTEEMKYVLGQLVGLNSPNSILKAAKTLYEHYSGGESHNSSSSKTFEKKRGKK
Description: Mps-1 kinase assay (TR-FRET). The format is biochemical. The conditions noted are these: GST-tagged human full length recombinant Mps-1; 10 μM ATP; 1 μM peptide substrate; 60 min at 22° C. In a few lines:
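N-terminally GST-tagged full-length recombinant human Mps-1, about 1 nM final, phosphorylates a biotinylated peptide. Product detected by TR-FRET from Eu-anti-phospho-Ser/Thr antibody to streptavidin-XLent after 1 h at 22° C.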
Background: In TR-FRET formats the signal depends on donor and acceptor labels being close together.
On to `O=C(NC1CC1)c1ccc(-c2cnc3c(NCCOCCOCCO)nc(-c4ccccc4)cn23)cc1` [Example 3-43, N-cyclopropyl-4-[8-({2-[2-(2-hydroxyethoxy)ethoxy]ethyl}amino)-6-phenylimidazo[1,2-a]pyrazin-3-yl]benzamide], for which the IC50 stood at 17.8 nM.

With `C=CCOC(=O)CCCNc1nc(-c2ccccc2)cn2c(-c3ccc(C(=O)NC4CC4)cc3)cnc12` [Example 3-44, Allyl 4-({3-[4-(cyclopropylcarbamoyl)phenyl]-6-phenylimidazo[1,2-a]pyrazin-8-yl}amino)butanoate], the IC50 came to 14.2 nM.

Regarding `NCC#CCCNc1nc(-c2ccccc2)cn2c(-c3ccc(C(=O)NC4CC4)cc3)cnc12` [Example 4-1, 4-{8-[(5-Aminopent-3-yn-1-yl)amino]-6-phenylimidazo[1,2-a]pyrazin-3-yl}-N-cyclopropylbenzamide], the IC50 is 10.8 nM.

Turning to `NC/C=C/CCNc1nc(-c2ccccc2)cn2c(-c3ccc(C(=O)NC4CC4)cc3)cnc12` [Example 4-2, 4-(8-{[(3E)-5-aminopent-3-en-1-yl]amino}-6-phenylimidazo[1,2-a]pyrazin-3-yl)-N-cyclopropylbenzamide], the IC50 worked out at 4.4 nM.

Consider `NC/C=C\CCNc1nc(-c2ccccc2)cn2c(-c3ccc(C(=O)NC4CC4)cc3)cnc12` [Example 4-3, 4-(8-{[(3Z)-5-aminopent-3-en-1-yl]amino}-6-phenylimidazo[1,2-a]pyrazin-3-yl)-N-cyclopropylbenzamide], for which the 50% inhibitory concentration (IC50) is 4.6 nM.

With `CC(C)CNc1nc(C#N)cn2c(-c3ccc(C(=O)NC4CC4)cc3)cnc12` [Example 5-1, 4-{6-cyano-8-[(2-methylpropyl)amino]imidazo[1,2-a]pyrazin-3-yl}-N-cyclopropyl benzamide], the IC50 is 55.1 nM.

`Cc1cc(-c2cnc3c(NCC(C)C)nc(-c4ccncc4)cn23)ccc1C(=O)NC1CC1` [Example 6-1, N-cyclopropyl-2-methyl-4-{8-[(2-methylpropyl)amino]-6-(pyridin-4-yl)imidazo[1,2-a]pyrazin-3-yl}benzamide]: the IC50 was found to be 1.5 nM.

`Cc1cc(-c2cnc3c(NCCC(F)(F)F)nc(C4=CCOCC4)cn23)ccc1C(=O)NC1CC1` [Example 6-2, N-cyclopropyl-4-{6-(3,6-dihydro-2H-pyran-4-yl)-8-[(3,3,3-trifluoro-propyl)amino]imidazo[1,2-a]pyrazin-3-yl}-2-methylbenzamide]: the IC50 was 6.5 nM.

For `Cc1cc(-c2cnc3c(NCC4CC4C)nc(-c4ccc(F)cc4)cn23)ccc1C(=O)NC1CC1` (centres unmarked) [Example 6-3, N-cyclopropyl-4-[6-(4-fluorophenyl)-8-{[(2-methylcyclopropyl)methyl]amino}imidazo[1,2-a]pyrazin-3-yl]-2-methylbenzamide], the IC50 was found to be 10.4 nM.

Turning to `Cc1cc(-c2cnc3c(NCC4CCCO4)nc(C4=CCOCC4)cn23)ccc1C(=O)NC1CC1` (centres unmarked) [Example 6-4, N-cyclopropyl-4-{6-(3,6-dihydro-2H-pyran-4-yl)-8-[(tetrahydrofuran-2-ylmethyl)amino]imidazo[1,2-a]pyrazin-3-yl}-2-methylbenzamide], the IC50 is 35.7 nM.

As to `Cc1cc(-c2cnc3c(NCC(C)C)nc(C4=CCOCC4)cn23)ccc1C(=O)NC1CC1` [Example 6-5, N-cyclopropyl-4-{6-(3,6-dihydro-2H-pyran-4-y1)-8-[(2-methylpropyl)amino]imidazo[1,2-a]pyrazin-3-yl}-2-methylbenzamide], the IC50 was 9.3 nM.

Consider `Cc1cc(-c2cnc3c(NCCC(C)CO)nc(C4=CCOCC4)cn23)ccc1C(=O)NC1CC1` (centres unmarked) [Example 6-6, N-cyclopropyl-4-{6-(3,6-dihydro-2H-pyran-4-yl)-8-[(4-hydroxy-3-methylbutyl)amino]imidazo[1,2-a]pyrazin-3-yl}-2-methylbenzamide], for which the half-maximal inhibitory concentration (IC50) was 20.6 nM.

With `Cc1cc(-c2cnc3c(NCC4CN(C)CCO4)nc(C4=CCOCC4)cn23)ccc1C(=O)NC1CC1` (centres unmarked) [Example 6-7, N-cyclopropyl-4-[6-(3,6-dihydro-2H-pyran-4-yl)-8-{[(4-methyl-morpholin-2-yl)methyl]amino}imidazo[1,2-a]pyrazin-3-y1]-2-methylbenzamide], the 50% inhibitory concentration (IC50) amounted to 294 nM.

Consider `Cc1cc(-c2cnc3c(NCC4CCC(C)(O)CC4)nc(C4=CCOCC4)cn23)ccc1C(=O)NC1CC1` (centres unmarked) [Example 6-8, N-cyclopropyl-4-[6-(3,6-dihydro-2H-pyran-4-yl)-8-{[(4-hydroxy-4-methylcyclohexyl)methyl]amino}imidazo[1,2-a]pyrazin-3-yl]-2-methylbenzamide], for which the IC50 came out at 11.1 nM.

With `Cc1cc(-c2cnc3c(NCC4CCN(C)C4)nc(C4=CCOCC4)cn23)ccc1C(=O)NC1CC1` (centres unmarked) [Example 6-9, N-cyclopropyl-4-[6-(3,6-dihydro-2H-pyran-4-yl)-8-{[(1-methyl-pyrrolidin-3-yl)methyl]amino}imidazo[1,2-a]pyrazin-3-yl]-2-methylbenzamide], the IC50 stood at 77.6 nM.

With `Cc1cc(-c2cnc3c(NCC4CCOC4)nc(C4=CCOCC4)cn23)ccc1C(=O)NC1CC1` (centres unmarked) [Example 6-11, N-cyclopropyl-4-{6-(3,6-dihydro-2H-pyran-4-yl)-8-[(tetrahydrofuran-3-ylmethyl)amino]imidazo[1,2-a]pyrazin-3-yl}-2-methylbenzamide], the IC50 came out at 6 nM.

As to `Cc1cc(-c2cnc3c(NCCCC(C)O)nc(C4=CCOCC4)cn23)ccc1C(=O)NC1CC1` (centres unmarked) [Example 6-12, N-cyclopropyl-4-{6-(3,6-dihydro-2H-pyran-4-yl)-8-[(4-hydroxypentyl)amino]imidazo[1,2-a]pyrazin-3-yl}-2-methylbenzamide], the 50% inhibitory concentration (IC50) was determined as 28 nM.

Consider `Cc1cc(-c2cnc3c(NCC4CNC(=O)C4)nc(C4=CCOCC4)cn23)ccc1C(=O)NC1CC1` (centres unmarked) [Example 6-13, N-cyclopropyl-4-[6-(3,6-dihydro-2H-pyran-4-yl)-8-{[(5-oxopyrrolidin-3-yl)methyl]amino}imidazo [1,2-a]pyrazin-3-yl]-2-methylbenzamide], for which the IC50 was 29.9 nM.

For `Cc1cc(-c2cnc3c(NCCC4CCN(C)CC4)nc(C4=CCOCC4)cn23)ccc1C(=O)NC1CC1` [Example 6-14, N-cyclopropyl-4-[6-(3,6-dihydro-2H-pyran-4-yl)-8-{[2-(1-methyl-piperidin-4-yl)ethyl]amino}imidazo[1,2-a]pyrazin-3-yl]-2-methylbenzamide], the IC50 was found to be 293 nM.

Regarding `Cc1cc(-c2cnc3c(NCC4CC(=O)N(C)C4)nc(C4=CCOCC4)cn23)ccc1C(=O)NC1CC1` (centres unmarked) [Example 6-15, N-cyclopropyl-4-[6-(3,6-dihydro-2H-pyran-4-yl)-8-{[(1-methyl-5-oxopyrrolidin-3-yl)methyl]amino}imidazo[1,2-a]pyrazin-3-yl]-2-methylbenzamide], the IC50 amounted to 44.8 nM.

For the molecule `Cc1cc(-c2cnc3c(NCC4CC4C)nc(C4=CCOCC4)cn23)ccc1C(=O)NC1CC1` (centres unmarked) [Example 6-16, N-cyclopropyl-4-[6-(3,6-dihydro-2H-pyran-4-yl)-8-{[(2-methylcyclo-propyl)methyl]amino}imidazo [1,2-a]pyrazin-3-yl]-2-methylbenzamide], the IC50 turned out to be 8.6 nM.

`Cc1cc(-c2cnc3c(NCC4CC(F)(F)C4)nc(C4=CCOCC4)cn23)ccc1C(=O)NC1CC1` [Example 6-17, N-cyclopropyl-4-[8-{[(3,3-difluoro-cyclobutyl)methyl]amino}-6-(3,6-dihydro-2H-pyran-4-yl)imidazo [1,2-a]pyrazin-3-yl]-2-methylbenzamide]: the IC50 is 10.5 nM.

As to `Cc1cc(-c2cnc3c(NCC4CCC(N(C)C)CC4)nc(C4=CCOCC4)cn23)ccc1C(=O)NC1CC1` (centres unmarked) [Example 6-18, N-cyclopropyl-4-[6-(3,6-dihydro-2H-pyran-4-yl)-8-({[4-(dimethylamino)cyclohexyl]methyl}amino)imidazo[1,2-a]pyrazin-3-yl]-2-methylbenzamide], the IC50 worked out at 199 nM.

With `CCN1CCC(CNc2nc(C3=CCOCC3)cn3c(-c4ccc(C(=O)NC5CC5)c(C)c4)cnc23)C1` (centres unmarked) [Example 6-19, N-cyclopropyl-4-[6-(3,6-dihydro-2H-pyran-4-yl)-8-{[(1-ethyl-pyrrolidin-3-yl)methyl]amino}imidazo[1,2-a]pyrazin-3-yl]-2-methylbenzamide], the IC50 stood at 338 nM.

`CC(C)CNc1nc(CCC(C)(C)O)cn2c(-c3ccc(C(=O)NC4CC4)cc3)cnc12` [Example 7-1, N-cyclopropyl-4-{6-(3-hydroxy-3-methylbutyl)-8-[(2-methylpropyl)amino]imidazo[1,2-a]pyrazin-3-yl}benzamide]: the half-inhibitory concentration (IC50) is 6.9 nM.

In the case of `CC(C)CNc1nc(CCCN(C)C)cn2c(-c3ccc(C(=O)NC4CC4)cc3)cnc12` [Example 7-2, N-cyclopropyl-4-{6-[3-(dimethylamino)propyl]-8-[(2-methylpropyl)amino]imidazo[1,2-a]pyrazin-3-yl}benzamide], the IC50 was 42.2 nM.
